We go through three compounds from the NIST ThermoML archive (doi:10.1016/j.fluid.2008.09.010).

For this data set the following is noted: Liquid; Ebulliometric method (Recirculating still).

± gives the expanded uncertainty stated by the source.

As to `C[S+](C)[O-]` [dimethyl sulfoxide], the Normal boiling temperature was determined as 188.77 ± 0.2 °C.
Next, `CN(C)C=O` [dimethylformamide]: 152.6 ± 0.2 °C.
In the case of `CC(=O)O` [acetic acid] it was 118 ± 0.2 °C.
